In patent US20170226518A1, “COMPOSITIONS AND METHODS FOR TREATING CANCER” (Autotelic LLC, priority 2016, published 2017):
In the oligonucleotide strings, read from the 5' end, every base follows the letter of its sugar. An asterisk marks phosphorothioate; unmarked linkages are phosphodiester. Other units and linkages are bracketed, terminal groups are in braces. A string of capitals states the bases alone. d = 2'-deoxy (DNA)

Columns and labels:
[1] = Acute single dose toxicity study in mice; assay type: in vivo; details: 1 of 10 mice died (LLD10)
Procedure: (§1) The clinical starting dose for the 7-days-on and 7-days-off schedule was based on the Lowest-Observed-Adverse-Effect-Level (LOAEL) devoid of severe toxicity in Cynomolgus monkeys as the most relevant species. This LOAEL of 4 mg/kg body weight (b.w.)/day is equivalent to approximately 1.3 mg/kg b.w./day or 48 mg/m^2/day on a body surface area basis in human adults. These numbers were rounded down and the safe starting dose was defined at 40 mg/m^2/day, equivalent to approximately 1 mg/kg b.w./day in humans. An alternative approach would have been based on the lowest lethal dose (LLD) of 300 mg/kg b.w. obtained in the acute single dose toxicity study in mice (in rats it was determined at 1000 mg/kg), at which 1 of 10 mice died (LLD10). According to the standard method, 10% of this dose (30 mg/kg) on a body surface area basis would then be defined as the clinical starting dose resulting in 90 mg/m^2/day. In the end, the lower of the two alternatives was chosen as starting dose.

[2] = system: A-172 glioma cells; assay: Migration of A-172 glioma cells; assay type: cell-based; details: AP12009 10 μM as monotherapy, compared with untreated control
Procedure: (§2) A-172 glioma cells were treated with a combination of AP12009 (trabedersen) 0 to 10 μM) and different concentrations of TMZ (temozolomide) for 7 days (treatment schedule 2*2/1*3 d).

[3] = system: TGFβ2; assay: TGFβ2 secretion/expression in HUP-T3 pancreatic cancer cells; assay type: cell-based; details: 10 μM AP12009 as monotherapy
Procedure: (§3) The aim of the study was to determine the effect of AP12009 (trabedersen) treatment in combination with 5-Fluorouracil (5-FU) on TGFβ2 secretion and on cellular proliferation of HUP-T3 pancreatic cancer cells and WiDr colon cancer cells in vitro.
(§4) 10 μM of AP12009 as monotherapy decreased cell proliferation (53% proliferation of untreated control) and TGFβ2 expression (42% of untreated control) in HUP-T3 cells.

[4] = system: A-172 glioma cells; assay: Proliferation of A-172 glioma cells; assay type: cell-based; details: 7 days, treatment schedule 2*2/1*3 d
Procedure: as §2
(§5) In summary there is no clear beneficial effect in combining AP12009 with TMZ in A-172 cells.

[5] = system: TGFβ2; assay: TGFβ2 secretion/expression in WiDr colon cancer cells; assay type: cell-based; details: 10 μM AP12009
From the text: as §3

[6] = system: TGFβ2; assay: TGFβ2 secretion in A-172 glioma cells; assay type: cell-based; details: 7 days, treatment schedule 2*2/1*3 d
Procedure: as §2, §5

[7] = system: HUP-T3 pancreatic cancer cells; assay: Cellular proliferation of HUP-T3 pancreatic cancer cells in vitro; assay type: cell-based; details: 10 μM AP12009 as monotherapy
Procedure: as §3, §4

[8] = Preclinical toxicology in Cynomolgus monkeys (LOAEL); assay type: in vivo
Procedure: as §1

[9] = Acute single dose toxicity in rats; assay type: in vivo
Procedure: as §1

[10] = system: C8161 human melanoma cells; assay: C8161 melanoma xenograft model: tumor growth and survival
Procedure: Sixty female athymic nude mice were intradermally inoculated with C8161 human melanoma cells and randomized into six groups of 10 mice. Three groups received monotherapy treatment with either OT-101 (trabedersen) (16 mg/kg) (Group 2) or Dacarbazine (DTIC; 1 or 10 mg/kg; Groups 3, 4). Two groups received combination therapy with OT-101/DTIC at 16/1 mg/kg or 16/10 mg/kg (Groups 5 and 6). Vehicle (0.9% saline, Groups 1, 3, and 4) and OT-101 were administered 3 times/week via subcutaneous injection. Vehicle (0.9% saline, Groups 1 and 2) and DTIC (1 or 10 mg/kg) were administered via intraperitoneal injection four times/week. All OT-101/Trabedersen treatments commenced at day 0 of the study and all DTIC treatments commenced on day 14. Mice were monitored for adverse effects, body weight and tumor size three times weekly. The tumor, lungs, liver and kidneys were excised from all mice at termination and weighed.

Substance: trabedersen: TGFβ2 specific phosphorothioate antisense oligodeoxynucleotide with the sequence 5′-CGGCATGTCTATTTTGTA-3′ (SEQ ID No: 1) (antisense dC*dG*dG*dC*dA*dT*dG*dT*dC*dT*dA*dT*dT*dT*dT*dG*dT*dA)
- lowest lethal dose (LLD) [1]: 300 mg/kg b.w.
- effect on migration of A-172 cells [2]: did not affect migration
- TGFβ2 expression (% of untreated control) [3]: 42%
- effect on cell proliferation [4]: slightly reduced cell proliferation
- TGFβ2 expression (% of untreated control) [5]: 54%
- effect on TGFβ2 secretion [6]: strongly reduced TGFβ2
- cell proliferation (% proliferation of untreated control) [7]: 53%
- Lowest-Observed-Adverse-Effect-Level (LOAEL) devoid of severe toxicity [8]: 4 mg/kg body weight (b.w.)/day
- lowest lethal dose (LLD) [9]: 1000 mg/kg
- Tumor growth suppressed relative to control group 1 ([10]; day 42, group 2: OT-101 16 mg/kg s.c. 3 times/week from day 0): 2%
- median survival ([10]; group 2: OT-101 16 mg/kg, sacrifice at tumor size 2,000 mm^3): 47 days
